Measurements reported in patent publication US20070053931A1, “Dietary supplements for treating hypertension” (ULTRA BIOTECH LIMITED, priority 2002, published 2007).

Test system: Wistar rats
Test: Control of essential hypertension in Wistar rats (testosterone propionate-induced blood pressure elevation)
Format: in vivo, rat
Procedure: Unless otherwise specified, all compositions of interest were administered to the animals by intragastric feeding.
To test the ability of the activated yeast compositions to reduce blood pressure, thirty-two healthy Wistar rats of average weight of about 200±20 g (8-10 months old, half of them male and the other half female) were randomly divided into four equal groups, Groups A, B, C and D. Blood pressure of each rat was measured with a manometer for three consecutive days. After three days, each rat was subcutaneously injected with 4 mg of testosterone propionate in 0.4 ml of sesame oil per day for fourteen consecutive days.
A composition of interest (2 ml/kg/day) was then administered to each rat for sixteen consecutive days, while their blood pressure level was monitored every four days. Rats in Groups A, B, C and D received distilled water, reserpine, the activated yeast composition and the control yeast composition, respectively.

For `COC(=O)[C@H]1[C@H]2C[C@@H]3c4[nH]c5cc(OC)ccc5c4CCN3C[C@H]2C[C@@H](OC(=O)c2cc(OC)c(OC)c(OC)c2)[C@@H]1OC` [reserpine], the “Blood Pressure After Administration of a Composition” value (Wistar rats made hypertensive with 4 mg/day s.c. testosterone propionate for 14 days, composition 2 ml/kg/day intragastric for sixteen consecutive days) was 15.3 ± 0.89 kPa and the “Change in Blood Pressure (Value in Col. 3 − Value in Col. 2)” value (after administration of composition vs after testosterone injection, 2 ml/kg/day intragastric, 16 days) was 1.4 ± 0.33 kPa.
